Earlier results, collected in patent US20230124124A1, “COMPOSITIONS AND METHODS FOR MYOPIA CONTROL AND ORTHOKERATOLOGY LENSES TREATMENT” (Ocular Science, Inc., priority 2021, published 2023).

Assays:
[1] = test system: human corneal epithelial cells; conditions: 0.01% BAK; within hours
corneas = conditions: one week of treatment

aqueous tear production (corneas): significantly reduced
fluorescein staining (corneas): increased
inflammatory cell infiltration (corneas): increased
stromal nerve fiber density (NFD) (corneas): significantly reduced
Substance: benzalkonium chloride [BAK]
effect on human corneal epithelial cells [1]: immediate cell retraction, cessation of normal cytokinesis and mitotic activity, and degeneration of human corneal epithelial cells
